Results published in patent publication US12396983B2, “Composition comprising rilmenidine compound as active ingredient for treatment of fragile X syndrome or related developmental disability” (NEUROVENTI, priority 2020, dated 2025).

Key:
[1] = test system: animal model lacking Cntnap2; assay: three-chamber test, social preference (novel vs familiar mouse) in Cntnap2-deficient autism animal model; assay type: in vivo; settings: Cntnap2-deficient mice treated with rilmenidine, FIG. 5
Description: To confirm the therapeutic effect of rilmenidine on social deficits, one of the phenotypes of developmental disorders, a three-chamber test was performed using an animal model lacking Cntnap2. FIG. 5 is a result of evaluating whether or not the time spent with a novel mouse is longer than that of a familiar mouse after exploring a stimulus mouse (familiar) for 10 minutes in the experimental animal, and after adding a new stimulus mouse (novel) together for 10 minutes. In this case, the old mouse is called familiar, and the new mouse is called novel. […] Experimental results were expressed as a preference index by measuring the time the test mouse explores each mouse or the sniffing time to each mouse. The higher the preference index, the more time spent with the novel mouse than with the familiar mouse, or the more time spent sniffing with the novel mouse than with the familiar mouse. […] Through this, it was confirmed that rilmenidine treatment can improve sociability (FIG. 5).

[2] = test system: animal model treated with MK-801 in wild-type mice; assay: novel object recognition test in MK-801 treated animal model; assay type: in vivo, mouse; settings: wild-type mice treated with MK-801 and then rilmenidine (0.3 mg/kg), test 24 hours after training, FIG. 3
Description: The cognitive improvement effect of rilmenidine was confirmed using an animal model treated with MK-801 in wild-type mice. The experiment was a novel object recognition test, where two identical objects were placed in the same location and trained, and 24 hours later, one identical object (familiar) and the other new object (novel) were put in, and the cognitive ability of the animal was tested by evaluating whether they could distinguish between familiar and new objects.

[3] = test system: animal model lacking Cntnap2; assay: three-chamber test, sociability index in Cntnap2-deficient autism animal model; assay type: in vivo, mouse; settings: Cntnap2-deficient mice treated with rilmenidine, FIG. 4
Description: To confirm the therapeutic effect of rilmenidine on social deficits, one of the phenotypes of developmental disorders, a three-chamber test was performed using an animal model lacking Cntnap2. The sociability index of FIG. 4 represents a value obtained by dividing stranger (retention time for a mouse) by empty (retention time for an empty space).

[4] = test system: Fmr1-deficient animal model; assay: three-chamber test, sociability in fragile X syndrome animal model; assay type: in vivo; settings: rilmenidine intraperitoneally (1 mg/kg / 50 ug/kg printed), 30 minutes after administration, FIG. 1
Description: Purchased a 5-week-old Fmr 1 knockout mouse (Jackson Laboratory, USA) weighing about 22 g to 24 g, and acclimatized to an environment with a temperature of 23±2° C. and humidity of 55±10% and a light-dark cycle of 12 hours while allowing them to freely consume water and feed. After breeding (Konkuk University Laboratory Animal Center), they were used for experiments. For all animals, wild-type (WT) with normal FMRP expression and male KO mice lacking FMRP (Fragile X mental retardation protein) expression (which induces Fragile X Syndrome (FXS)) were used. Dosing and experiments were performed according to the age of the week. Dosing was performed at the same time. Behavioral experiments were conducted 30 minutes after administration. It was divided into groups administered with 1 mg/kg each of rilmenidine (Sigma Aldrich) in FMRP expression-deficient knock-out (Knock-Out) mice, wild-type (Wild Type) mice, and 0.25 DMSO in FMRP expression-deficient knock-out mice (6 mice per group). For the drug administration group, rilmenidine was dissolved in 0.25% DMSO and then administered intraperitoneally at a dose of 50 ug/kg. Meanwhile, 0.25% DMSO was intraperitoneally administered to the control group. […] The time the test mouse explored each stimulus mouse was measured and expressed as %.

[5] = test system: animal model treated with MK-801 in wild-type mice; assay: pre-pulse suppression (startle response) test in MK-801 treated animal model; assay type: in vivo, mouse; settings: wild-type mice treated with MK-801 and then rilmenidine intraperitoneally, FIG. 2
Description: The startle response was confirmed in an animal model treated with MK-801 in wild-type mice. Mice were divided into groups, and 0.9% physiological saline (saline solution), rilmenidine, or a positive control drug (aripiprazole) was intraperitoneally administered to each group. Then, sensorimotor gating was evaluated through a pre-wave suppression test (converted using Equation 1). […] Pre-pulse suppression (%)=100−[(startle response to pre-stimulus+stimulus)/(startle response to stimulus)]*100 [Equation 1] Confirmation of Cognitive Improvement Effect of Rilmenidine

Structure (SMILES): C1COC(NC(C2CC2)C2CC2)=N1 [rilmenidine, N-(dicyclopropylmethyl)-4,5-dihydro-1,3-oxazol-2-amine]
- preference index: sniffing time to novel mouse vs familiar mouse [1]: sniffed more
- preference index: time spent with novel mouse vs familiar mouse [1]: spent more time
- ability to distinguish novel object from familiar object (cognitive improvement) [2]: the ability to distinguish novel objects was improved
- sociability index: retention time for mouse (stranger) vs empty space [3]: the retention time for the mouse was longer than the retention time for the empty space
- time the test mouse explored novel vs familiar stimulus mouse (sociability) [4]: more time was spent with the novel mouse than with the familiar mouse
- pre-pulse suppression [5]: the reduced pre-pulse suppression was restored
